In one assay the target is T1, c-kit kinase (Homo sapiens, UniProt P10721).
T1 construct: The c-kit (or kinase domain thereof) is an active kinase in AlphaScreen; poly-Histidine tag (in-house protein only) (cleaved yes); host or cells: E. coli BL21(DE3)RIL, co-expressed with PTP1B
As to the kind of experiment: c-Kit biochemical assay, AlphaScreen, 10 μM ATP. As to conditions: c-kit biochemical inhibitory activity; read-out: Biochemical activity (IC50 μM) Kit. In a few lines: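 His-tagged c-Kit expressed in E. coli with co-expressed PTP1B (dephosphorylated), tag removed; 0.1 ng per reaction with biotinylated-peptide substrate in 50 mM HEPES pH 7.2, 5 mM MgCl2, 5 mM MnCl2, 5% DMSO, 10 μM ATP, 1 h at room temperature. Phosphorylation detected by AlphaScreen (streptavidin donor, PY20 acceptor beads); IC50 from 8-point 1:3 dilution series.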
(Alpha assays give light when donor and acceptor beads are brought close together.)

In another assay the target is T2, c-kit mutant D816V (Homo sapiens, UniProt P10721, D816V/DEL694-753).
T2 construct: residues 551-934, kinase insertion domain residues 694-753 deleted; 6x-histidine (N); made in house; host or cells: E. coli Arctic Express (DE3) RIL (Stratagene)
As to the kind of experiment: c-Kit mutant D816V biochemical assay, AlphaScreen. Conditions: c-kit D816V biochemical inhibitory activity; read-out: Biochemical activity (IC50 μM) Kit D816V. In a few lines: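 Eight-point, threefold compound series incubated 30 min at room temperature with E. coli-produced D816V kinase, 10 μM ATP, Mg2+/Mn2+ HEPES buffer pH 7.2 and 5% DMSO. After EDTA stop, streptavidin and anti-phosphotyrosine (PY20) AlphaScreen beads gave the read-out, and IC50 was fitted from the concentration–signal curve.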

By IC50 is commonly meant the point on the concentration scale where inhibition reaches its midpoint.

T2 sequence (P10721 with tags, fused parts or gaps DEL694-753/D816V): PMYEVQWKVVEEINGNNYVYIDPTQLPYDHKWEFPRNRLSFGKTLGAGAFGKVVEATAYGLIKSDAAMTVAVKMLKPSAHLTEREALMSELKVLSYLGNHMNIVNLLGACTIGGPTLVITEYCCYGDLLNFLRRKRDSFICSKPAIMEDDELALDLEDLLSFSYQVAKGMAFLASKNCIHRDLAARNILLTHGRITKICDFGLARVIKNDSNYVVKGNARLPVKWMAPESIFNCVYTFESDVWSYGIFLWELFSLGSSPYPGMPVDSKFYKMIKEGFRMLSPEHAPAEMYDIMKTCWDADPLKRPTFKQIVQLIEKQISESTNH
T1 sequence (P10721 26-976): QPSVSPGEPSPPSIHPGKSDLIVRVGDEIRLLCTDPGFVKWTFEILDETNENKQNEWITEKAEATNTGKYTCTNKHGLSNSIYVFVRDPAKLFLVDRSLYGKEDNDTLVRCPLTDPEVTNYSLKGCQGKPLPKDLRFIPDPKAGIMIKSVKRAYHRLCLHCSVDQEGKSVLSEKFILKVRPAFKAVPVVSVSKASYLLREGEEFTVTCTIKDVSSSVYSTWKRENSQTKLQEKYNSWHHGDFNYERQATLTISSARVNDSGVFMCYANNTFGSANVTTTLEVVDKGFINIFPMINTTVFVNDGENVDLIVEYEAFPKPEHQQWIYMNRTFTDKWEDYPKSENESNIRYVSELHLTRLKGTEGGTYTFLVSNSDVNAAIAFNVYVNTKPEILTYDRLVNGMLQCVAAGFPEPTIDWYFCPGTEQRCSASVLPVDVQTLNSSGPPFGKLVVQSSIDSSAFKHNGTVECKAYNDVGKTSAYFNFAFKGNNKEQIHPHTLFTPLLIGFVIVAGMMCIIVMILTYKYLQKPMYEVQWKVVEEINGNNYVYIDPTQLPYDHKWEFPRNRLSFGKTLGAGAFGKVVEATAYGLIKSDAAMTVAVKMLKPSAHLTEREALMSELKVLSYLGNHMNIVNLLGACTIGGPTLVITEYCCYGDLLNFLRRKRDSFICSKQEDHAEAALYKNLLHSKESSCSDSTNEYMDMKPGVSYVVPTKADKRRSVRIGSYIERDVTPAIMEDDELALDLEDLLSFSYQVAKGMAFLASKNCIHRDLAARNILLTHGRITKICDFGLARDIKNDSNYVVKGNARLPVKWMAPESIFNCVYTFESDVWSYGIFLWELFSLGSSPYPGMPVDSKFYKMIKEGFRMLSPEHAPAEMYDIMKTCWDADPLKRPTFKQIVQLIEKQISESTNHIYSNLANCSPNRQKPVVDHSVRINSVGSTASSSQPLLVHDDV

With `COc1cccc([C@H](C)NC(=O)N2CCN(c3ncnc4[nH]c(-c5ccc(C#N)cc5)cc34)C[C@H]2C)c1` [P-0692, (2R)-4-[6-(4-cyanophenyl)-7H-pyrrolo[2,3-d]pyrimidin-4-yl]-N-[(1S)-1-(3-methoxyphenyl)ethyl]-2-methyl-piperazine-1-carboxamide], the values for the half-inhibitory concentration (IC50) at c-kit kinase and on c-kit mutant D816V were 1 to 10 µM and 0.0001 to 1 µM, respectively.
Regarding `C[C@H](NC(=O)N1CCN(c2ncnc3[nH]c(-c4ccc(C#N)cc4)cc23)C[C@H]1C)c1cccc(Cl)c1` [P-0694, (2R)-N-[(1S)-1-(3-chlorophenyl)ethyl]-4-[6-(4-cyanophenyl)-7H-pyrrolo[2,3-d]pyrimidin-4-yl]-2-methyl-piperazine-1-carboxamide], the concentration for half-maximal inhibition (IC50) fell in the range of 10 to 200 µM on c-kit kinase and 0.0001 to 1 µM at c-kit mutant D816V.
Take `COc1cc(-c2cc3c(N4CCN(C(=O)N[C@@H](C)c5ccc(F)cc5)[C@H](C)C4)ncnc3[nH]2)ccn1` [P-0695, (2R)-N-[(1S)-1-(4-fluorophenyl)ethyl]-4-[6-(2-methoxy-4-pyridyl)-7H-pyrrolo[2,3-d]pyrimidin-4-yl]-2-methyl-piperazine-1-carboxamide]: the IC50 on c-kit kinase lay within 10 to 200 µM; on c-kit mutant D816V, 0.0001 to 1 µM.
Turning to `C[C@H](NC(=O)N1CCN(c2ncnc3[nH]c(-c4ccc(C#N)cc4)cc23)CC1)c1cccc(Cl)c1` [P-0697, N-[(1S)-1-(3-chlorophenyl)ethyl]-4-[6-(4-cyanophenyl)-7H-pyrrolo[2,3-d]pyrimidin-4-yl]piperazine-1-carboxamide], the IC50 was 1 to 10 µM on c-kit kinase and 0.0001 to 1 µM on c-kit mutant D816V.
In the case of `C[C@H](NC(=O)N1CCN(c2ncnc3[nH]c(-c4ccc(F)cc4)cc23)CC1(C)C)c1ccc(Cl)cc1` [P-0700, N-[(1S)-1-(4-chlorophenyl)ethyl]-4-[6-(4-fluorophenyl)-7H-pyrrolo[2,3-d]pyrimidin-4-yl]-2,2-dimethyl-piperazine-1-carboxamide], the half-inhibitory concentration (IC50) on c-kit kinase fell in the range of 1 to 10 µM; on c-kit mutant D816V, 0.0001 to 1 µM.
Take `O=C(NCc1cccs1)N1CCN(c2ncnc3cc(-c4ccc(F)cc4)sc23)CC1` [P-0709, 4-[6-(4-fluorophenyl)thieno[3,2-d]pyrimidin-4-yl]-N-(2-thienylmethyl)piperazine-1-carboxamide]: the 50% inhibitory concentration (IC50) on c-kit kinase lay in the range of 10 to 200 µM; on c-kit mutant D816V, 0.0001 to 1 µM.
In the same order, the values of `COc1cc(-c2cc3c(N4CCN(C(=O)N[C@@H](C)c5ccc(Cl)cc5)C(C)(C)C4)ncnc3[nH]2)ccn1` [P-0710, N-[(1S)-1-(4-chlorophenyl)ethyl]-4-[6-(2-methoxy-4-pyridyl)-7H-pyrrolo[2,3-d]pyrimidin-4-yl]-2,2-dimethyl-piperazine-1-carboxamide] are 10 to 200 µM and 0.0001 to 1 µM.
Regarding `Cc1ccc([C@H](C)NC(=O)N2CCN(c3ncnc4[nH]c(-c5ccc(F)cc5)cc34)C[C@H]2C)cc1` [P-0712, (2R)-4-[6-(4-fluorophenyl)-7H-pyrrolo[2,3-d]pyrimidin-4-yl]-2-methyl-N-[(1S)-1-(p-tolyl)ethyl]piperazine-1-carboxamide], the 50% inhibitory concentration (IC50) at c-kit kinase was 10 to 200 µM; on c-kit mutant D816V it was 0.0001 to 1 µM.
As for `CCOc1cccc(-c2[nH]c(C3CCN(c4ncnc5[nH]c(-c6ccnc(OC)c6)cc45)CC3)nc2C)c1` [P-0714, 4-[4-[5-(3-ethoxyphenyl)-4-methyl-1H-imidazol-2-yl]-1-piperidyl]-6-(2-methoxy-4-pyridyl)-7H-pyrrolo[2,3-d]pyrimidine], the half-maximal inhibitory concentration (IC50) lay within 10 to 200 µM at c-kit kinase and 0.0001 to 1 µM at c-kit mutant D816V.
Consider `Cc1nn(C)cc1-c1cc2c(N3CCN(C(=O)N[C@@H](C)c4ccc(F)cc4)[C@H](C)C3)ncnc2[nH]1` [P-0715, (2R)-4-[6-(1,3-dimethylpyrazol-4-yl)-7H-pyrrolo[2,3-d]pyrimidin-4-yl]-N-[(1S)-1-(4-fluorophenyl)ethyl]-2-methyl-piperazine-1-carboxamide], for which the concentration for half-maximal inhibition (IC50) at c-kit kinase lay in the range of 1 to 10 µM; at c-kit mutant D816V, 0.0001 to 1 µM.
Turning to `Cc1nn(C)cc1-c1cc2c(N3CCN(C(=O)N[C@@H](C)c4ccc(Cl)cc4)CC3)ncnc2[nH]1` [P-0716, N-[(1S)-1-(4-chlorophenyl)ethyl]-4-[6-(1,3-dimethylpyrazol-4-yl)-7H-pyrrolo[2,3-d]pyrimidin-4-yl]piperazine-1-carboxamide], the 50% inhibitory concentration (IC50) on c-kit kinase lay within 10 to 200 µM; on c-kit mutant D816V, 0.0001 to 1 µM.
As to `C[C@H](NC(=O)N1CCN(c2ncnc3[nH]c(-c4cnn(C)c4)cc23)C[C@H]1C)c1ccc(Cl)cc1` [P-0717, (2R)-N-[(1S)-1-(4-chlorophenyl)ethyl]-2-methyl-4-[6-(1-methylpyrazol-4-yl)-7H-pyrrolo[2,3-d]pyrimidin-4-yl]piperazine-1-carboxamide], the IC50 on c-kit kinase was in the range of 1 to 10 µM; on c-kit mutant D816V it was 0.0001 to 1 µM.
Consider `Cc1nn(C)cc1-c1cc2c(N3CCN(C(=O)N[C@@H](C)c4ccc(Cl)cc4)[C@H](C)C3)ncnc2[nH]1` [P-0718, (2R)-N-[(1S)-1-(4-chlorophenyl)ethyl]-4-[6-(1,3-dimethylpyrazol-4-yl)-7H-pyrrolo[2,3-d]pyrimidin-4-yl]-2-methyl-piperazine-1-carboxamide], for which the 50% inhibitory concentration (IC50) on c-kit kinase and on c-kit mutant D816V was 0.0001 to 1 µM throughout.
`Cc1ccc([C@H](C)NC(=O)N2CCN(c3ncnc4[nH]c(-c5ccc(F)cc5)cc34)CC2(C)C)cc1` [P-0719, 4-[6-(4-fluorophenyl)-7H-pyrrolo[2,3-d]pyrimidin-4-yl]-2,2-dimethyl-N-[(1S)-1-(p-tolyl)ethyl]piperazine-1-carboxamide]: the half-inhibitory concentration (IC50) on c-kit kinase and on c-kit mutant D816V was 0.0001 to 1 µM each time.
As to `C[C@H](NC(=O)N1CCN(c2ncnc3[nH]c(-c4cnn(C)c4)cc23)CC1(C)C)c1ccc(F)cc1` [P-0720, N-[(1S)-1-(4-fluorophenyl)ethyl]-2,2-dimethyl-4-[6-(1-methylpyrazol-4-yl)-7H-pyrrolo[2,3-d]pyrimidin-4-yl]piperazine-1-carboxamide], the 50% inhibitory concentration (IC50) on c-kit kinase and on c-kit mutant D816V was 0.0001 to 1 µM throughout.
On to `Cc1nn(C)cc1-c1cc2c(N3CCN(C(=O)N[C@@H](C)c4ccc(F)cc4)C(C)(C)C3)ncnc2[nH]1` [P-0721, 4-[6-(1,3-dimethylpyrazol-4-yl)-7H-pyrrolo[2,3-d]pyrimidin-4-yl]-N-[(1S)-1-(4-fluorophenyl)ethyl]-2,2-dimethyl-piperazine-1-carboxamide], for which the IC50 at c-kit kinase and at c-kit mutant D816V was 0.0001 to 1 µM in each case.
Regarding `C[C@H](NC(=O)N1CCN(c2ncnc3[nH]c(-c4cnn(C)c4)cc23)CC1(C)C)c1ccc(Cl)cc1` [P-0722, N-[(1S)-1-(4-chlorophenyl)ethyl]-2,2-dimethyl-4-[6-(1-methylpyrazol-4-yl)-7H-pyrrolo[2,3-d]pyrimidin-4-yl]piperazine-1-carboxamide], the IC50 on c-kit kinase and at c-kit mutant D816V was 0.0001 to 1 µM throughout.
With `Cc1nn(C)cc1-c1cc2c(N3CCN(C(=O)N[C@@H](C)c4ccc(Cl)cc4)C(C)(C)C3)ncnc2[nH]1` [P-0723, N-[(1S)-1-(4-chlorophenyl)ethyl]-4-[6-(1,3-dimethylpyrazol-4-yl)-7H-pyrrolo[2,3-d]pyrimidin-4-yl]-2,2-dimethyl-piperazine-1-carboxamide], the half-inhibitory concentration (IC50) on c-kit kinase and at c-kit mutant D816V was 0.0001 to 1 µM in each case.
For `Cc1nn(C)cc1-c1cc2c(N3CCN(C(=O)N[C@@H](C)c4ccc(F)cc4)CC3)ncnc2[nH]1` [P-0724, 4-[6-(1,3-dimethylpyrazol-4-yl)-7H-pyrrolo[2,3-d]pyrimidin-4-yl]-N-[(1S)-1-(4-fluorophenyl)ethyl]piperazine-1-carboxamide], the IC50 at c-kit kinase and at c-kit mutant D816V was 0.0001 to 1 µM throughout.

These data come from US10227357B2, “Compounds and methods for kinase modulation, and indications therefor” (Plexxikon Inc., priority 2012, dated 2019).
